Data from US20200055817A1 (AbbVie Deutschland GmbH & Co. KG, priority 2016, published 2020).
Counter-ions that a name gives are not always drawn.

Tests used:
Assay type in all cases: cell-based
[1] = target: T1, human EDG1 (S1PR1) receptor (Homo sapiens, UniProt P21453); test: Aequorin assay, agonist potency, CHO-A21-Edg1#17 cells; conditions: agonist mode, aequorin luminescence; read-out: S1P1 EC50
T1 construct: expressed in transfected cells; host or cells: CHO-A21-Edg1#17 (CHO clone co-expressing mitochondrial aequorin and chimaeric Gaqi5)
Procedure, shortened: (§1)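 CHO cells coexpressing receptor, mitochondrial aequorin and Gαqi5 (S1P3 pool: GNA16) were loaded overnight at RT with 5 μM coelenterazine h in 0.1% fatty-acid-free BSA buffer. Cells were injected onto compound, luminescence recorded 90 s and integrated, normalised to digitonin or 20 μM ATP; sigmoidal fit.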

S1P4 = target: T2, S1P4 (Homo sapiens, UniProt O95977); test: Aequorin assay, agonist potency, S1P4; conditions: agonist mode, aequorin luminescence
T2 sequence (O95977 1-384): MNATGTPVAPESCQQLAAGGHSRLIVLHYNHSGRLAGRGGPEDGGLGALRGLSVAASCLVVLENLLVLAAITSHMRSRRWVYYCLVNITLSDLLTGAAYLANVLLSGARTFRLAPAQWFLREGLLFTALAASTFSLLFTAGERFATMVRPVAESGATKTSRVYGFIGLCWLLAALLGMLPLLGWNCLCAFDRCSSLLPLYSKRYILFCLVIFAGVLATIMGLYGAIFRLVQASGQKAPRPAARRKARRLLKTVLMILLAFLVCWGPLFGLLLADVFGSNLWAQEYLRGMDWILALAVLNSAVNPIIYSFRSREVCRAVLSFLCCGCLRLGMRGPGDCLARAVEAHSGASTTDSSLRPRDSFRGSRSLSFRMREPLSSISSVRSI
Procedure, shortened: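 Aequorin luminescence read over 90 s after adding coelenterazine h–loaded cells (5 μM, overnight, RT) to test compound in phenol red-free DMEM/F12 buffer containing 0.1% fatty acid-free BSA. Responses integrated, scaled to the 100% signal from 100 μM digitonin or 20 μM ATP, and fitted to a sigmoidal dose-response model.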

[2] = target: T3, human EDG8 (S1PR5) receptor (Homo sapiens, UniProt Q9H228); test: Aequorin assay, agonist potency, CHO-A21-EDG8#12 cells; conditions: agonist mode, aequorin luminescence; read-out: S1P5 EC50 range #
T3 construct: carries the transgenes human EDG8 (S1PR5) receptor (Acession number NP_110387.1); expressed in transfected cells; host or cells: CHO-A21-EDG8#12 (CHO clone co-expressing mitochondrial aequorin and chimaeric Gaqi5)
Procedure, shortened: as §1

[3] = target: T4, human EDG3 (S1PR3) receptor (Homo sapiens, UniProt Q99500); test: Aequorin assay, agonist potency, CHO-A2-S1P3 Mix cells; conditions: agonist mode, aequorin luminescence
T4 construct: expressed in transfected cells; host or cells: CHO-A2-S1P3 Mix (CHO cell pool co-expressing mitochondrial aequorin and GNA16)
Procedure: Agonistic activity was measured as described below.
Cell clone CHO-A21-Edg1#17 carries the transgenes human EDG1 (S1PR1) receptor (Accession number NP_001391.2), mitochondrially targeted Aequorin (active part corresponds to accession number 1SL8_A) and chimaeric Gaqi5=Gaq modified with the 5 C-terminal amino-acids replaced with those of the Gai protein (DCGLF). CHO-A2-S1P3 Mix is a cell pool ectopically expressing human EDG3 (S1PR3) receptor (Accession number NP_005217.2) mitochondrially targeted Aequorin (active part has a sequence similar to accession number AY601106.1) and GNA16 (Accession number NP_002059.3). Cell clone CHO-A21-EDG8#12 carries the transgenes human EDG8 (S1PR5) receptor (Acession number NP_110387.1), mitochondrially expressed Aequorin (active part corresponds to accession number 1SL8_A) and chimaeric Gaqi5 (Gaq modified to present the 5 last amino-acids of the Gai protein “DCGLF”; see above). Cells are grown to mid-log phase in culture medium (HAM's F12, 10% FBS, 100 IU/mL penicillin, 100 μg/mL streptomycin, 250 μg/mL Zeocin, 400 μg/mL G418). 18 hours prior to frozen cells preparation, the medium is changed to remove the antibiotics.
18 hours prior to the test, vials of frozen cells are quickly thawed in a 37° C. water bath, cells are recovered by centrifugation and resuspended in assay buffer (DMEM/HAM's F12 with HEPES, without phenol red+0.1% fatty acid-free BSA). Cells are gently agitated in suspension overnight at RT in presence of 5 μM of Coelenterazine h (Molecular Probes). On the day of the test, cells are diluted to their final working concentrations in assay buffer and agitated in suspension for 1 h at RT. Cells are then placed in the luminescence reader (Hamamatsu Functional Drug Screening System 6000, FDSS6000). During cells incubation, compounds are prepared in 100% DMSO, and subsequently diluted in assay buffer. Compounds are then dispensed in the assay plate (black, clear-bottom, 384-well plate). After binding of agonists to the human S1P receptor the intracellular calcium concentration increases and binding of calcium to the Aequorin/Coelenterazine complex leads to an oxidation reaction of coelenterazine, which results in the production of Aequorin, coelenteramide, CO2 and light (Dmax 469 nm). The luminescent response is dependent on the agonist concentration. For agonist testing, 30 μL of cell suspension are injected on 30 μL of test compound or reference agonist in the assay plate. The resulting emission of light is recorded for 90 seconds using the FDSS6000. Dose response curves with the reference compounds are performed before testing the compounds. S1P is the reference agonist and JTE-013 the reference antagonist for S1P2.
Luminescence data are integrated over the reading interval for agonist and antagonist modes. To standardize the emission of recorded light (determination of the “100% signal”) across plates and across different experiments, some of the wells contain 100 μM digitonin or a saturating concentration of ATP (20 μM). Plates also contain the reference agonist at a concentration equivalent to the EC80 obtained during the test validation and the EC100. Dose-response data from test compounds were analyzed with XLfit (IDBS) software using nonlinear regression applied to a sigmoidal dose-response model and the following equation: […]

T3 sequence (Q9H228 whole entry): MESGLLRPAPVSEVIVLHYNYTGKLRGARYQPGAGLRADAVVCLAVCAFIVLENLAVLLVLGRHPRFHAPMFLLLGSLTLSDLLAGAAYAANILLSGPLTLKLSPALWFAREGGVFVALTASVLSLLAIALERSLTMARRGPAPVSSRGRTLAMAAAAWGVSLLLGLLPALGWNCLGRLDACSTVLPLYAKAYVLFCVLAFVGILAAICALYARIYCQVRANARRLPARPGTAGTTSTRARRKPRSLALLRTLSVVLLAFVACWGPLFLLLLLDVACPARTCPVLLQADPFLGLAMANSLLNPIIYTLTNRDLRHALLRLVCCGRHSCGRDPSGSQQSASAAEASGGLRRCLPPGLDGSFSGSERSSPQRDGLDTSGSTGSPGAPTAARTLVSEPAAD
T4 sequence (Q99500 whole entry): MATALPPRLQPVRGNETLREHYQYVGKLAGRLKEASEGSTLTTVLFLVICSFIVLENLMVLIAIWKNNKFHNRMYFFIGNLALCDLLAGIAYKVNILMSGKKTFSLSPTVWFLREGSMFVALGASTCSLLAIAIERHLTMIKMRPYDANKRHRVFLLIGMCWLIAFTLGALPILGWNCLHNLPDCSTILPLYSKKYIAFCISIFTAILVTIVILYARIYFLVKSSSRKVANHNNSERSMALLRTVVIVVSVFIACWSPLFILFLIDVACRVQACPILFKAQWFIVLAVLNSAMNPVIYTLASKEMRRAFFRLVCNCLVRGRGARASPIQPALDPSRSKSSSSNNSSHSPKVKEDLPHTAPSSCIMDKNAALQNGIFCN
T1 sequence (P21453 whole entry): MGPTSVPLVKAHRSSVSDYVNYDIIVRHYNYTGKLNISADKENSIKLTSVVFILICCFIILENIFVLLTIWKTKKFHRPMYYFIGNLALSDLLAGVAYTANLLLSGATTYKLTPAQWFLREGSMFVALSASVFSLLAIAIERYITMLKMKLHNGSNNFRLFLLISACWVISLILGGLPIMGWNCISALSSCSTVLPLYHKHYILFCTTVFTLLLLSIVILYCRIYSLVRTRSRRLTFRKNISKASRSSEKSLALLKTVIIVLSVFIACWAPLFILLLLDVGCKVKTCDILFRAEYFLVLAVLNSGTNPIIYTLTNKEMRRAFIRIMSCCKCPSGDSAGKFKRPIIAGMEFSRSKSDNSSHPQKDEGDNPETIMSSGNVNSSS

EC50 [1] [µM]	EC50 (S1P4) [µM]	EC50 [2] [µM]	EC50 [3] [µM]	Compound
> 1	< 1	1 to 10	> 1	O=C(O)CCN1CC2(Cc3ccc(OCc4ccccc4)cc3C2)C1 [Example 6, 3-(5′-(benzyloxy)-1′,3′-dihydrospiro[azetidine-3,2′-inden]-1-yl)propanoic acid hydrochloride]
> 1	< 1	1 to 10	> 1	O=C(O)CN1CC2(Cc3ccc(OCc4ccc(Cl)cc4)cc3C2)C1 [Example 11, 2-(5′-((4-chlorobenzyl)oxy)-1′,3′-dihydrospiro[azetidine-3,2′-inden]-1-yl)acetic acid]
> 1	< 1	0.01 to 0.1	> 1	O=C(O)CN1CC2(Cc3ccc(OCc4cc(F)cc(F)c4)cc3C2)C1 [Example 14, 2-(5′-((3,5-difluorobenzyl)oxy)-1′,3′-dihydrospiro[azetidine-3,2′-inden]-1-yl)acetic acid]
> 1	< 1	≤ 0.01	> 1	O=C(O)CN1CC2(Cc3ccc(OCc4cc(Cl)ccc4Cl)cc3C2)C1 [Example 23, 2,2,2-trifluoroacetic acid compound with 2-(5′-((2,5-dichlorobenzyl)oxy)-1′,3′-dihydrospiro[azetidine-3,2′-inden]-1-yl)acetic acid (1:1)]
> 1	< 1	≤ 0.01	> 1	CCc1cccc(Cl)c1COc1ccc2c(c1)CC1(C2)CN(CC(=O)O)C1 [Example 24, 2,2,2-trifluoroacetic acid compound with 2-(5′-((2-chloro-6-ethylbenzyl)oxy)-1′,3′-dihydrospiro[azetidine-3,2′-inden]-1-yl)acetic acid (1:1)]
> 1	< 1	0.01 to 0.1	> 1	O=C(O)CN1CC2(Cc3ccc(OCc4ccc(Cl)c(Cl)c4)cc3C2)C1 [Example 25, 2,2,2-trifluoroacetic acid compound with 2-(5′-((3,4-dichlorobenzyl)oxy)-1′,3′-dihydrospiro[azetidine-3,2′-inden]-1-yl)acetic acid (1:1)]
> 1	< 1	≤ 0.01	> 1	Cc1cccc(C)c1COc1ccc2c(c1)CC1(C2)CN(CC2(C(=O)O)CC2)C1 [Example 39, 1-((5′-((2,6-dimethylbenzyl)oxy)-1′,3′-dihydrospiro[azetidine-3,2′-inden]-1-yl)methyl)cyclopropanecarboxylic acid compound with 2,2,2-trifluoroacetic acid (1:1)]

The remaining lines, values behind:

Compound	EC50 [1] [µM]	EC50 (S1P4) [µM]	EC50 [2] [µM]	EC50 [3] [µM]
CCc1cccc(Cl)c1COc1ccc2c(c1)CC1(C2)CN(CCC(=O)O)C1 [Example 7, 3-(5′-((2-chloro-6-ethylbenzyl)oxy)-1′,3′-dihydrospiro[azetidine-3,2′-inden]-1-yl)propanoic acid hydrochloride]	> 1	< 1	≤ 0.01	> 1
O=C(O)CN1CC2(Cc3ccc(OCc4ccccc4)cc3C2)C1 [Example 8, 2-(5′-(benzyloxy)-1′,3′-dihydrospiro[azetidine-3,2′-inden]-1-yl)acetic acid]	> 1	< 1	0.1 to 1	> 1
O=C(O)CN1CC2(Cc3ccc(OCc4c(Cl)cccc4C4CC4)cc3C2)C1 [Example 15, 2-(5′-((2-chloro-6-cyclopropylbenzyl)oxy)-1′,3′-dihydrospiro[azetidine-3,2′-inden]-1-yl)acetic acid]	> 1	< 1	≤ 0.01	> 1
O=C(O)CN1CC2(Cc3ccc(OCc4cccc(Cl)c4)cc3C2)C1 [Example 16, 2-(5′-((3-chlorobenzyl)oxy)-1′,3′-dihydrospiro[azetidine-3,2′-inden]-1-yl)acetic acid compound with acetic acid (1:1)]	> 1	< 1	≤ 0.01	> 1
CCc1cccc(Cl)c1COc1ccc2c(c1)CC1(C2)CN(CC2(C(=O)O)CC2)C1 [Example 28, 1-((5′-((2-chloro-6-ethylbenzyl)oxy)-1′,3′-dihydrospiro[azetidine-3,2′-inden]-1-yl)methyl)cyclopropanecarboxylic acid]	> 1	< 1	≤ 0.01	> 1
O=C(O)C1(CN2CC3(Cc4ccc(OCc5ccccc5)cc4C3)C2)CC1 [Example 29, 1-((5′-(benzyloxy)-1′,3′-dihydrospiro[azetidine-3,2′-inden]-1-yl)methyl)cyclopropanecarboxylic acid]	> 1	> 1	1 to 10	> 1
O=C(O)C1(CN2CC3(Cc4ccc(OCc5c(Cl)cccc5C5CC5)cc4C3)C2)CC1 [Example 44, 1-((5′-((2-chloro-6-cyclopropylbenzyl)oxy)-1′,3′-dihydrospiro[azetidine-3,2′-inden]-1-yl)methyl)cyclopropanecarboxylic acid compound with acetic acid (1:1)]	> 1	< 1	≤ 0.01	> 1
O=C(O)C1(CN2CC3(Cc4ccc(OCc5cccc(Cl)c5)cc4C3)C2)CC1 [Example 45, 1-((5′-((3-chlorobenzyl)oxy)-1′,3′-dihydrospiro[azetidine-3,2′-inden]-1-yl)methyl)cyclopropanecarboxylic acid]	> 1	< 1	0.01 to 0.1	> 1
O=C(O)C1(CN2CC3(Cc4ccc(OCc5c(Cl)cccc5Cl)cc4C3)C2)CC1 [Example 46, 1-((5′-((2,6-dichlorobenzyl)oxy)-1′,3′-dihydrospiro[azetidine-3,2′-inden]-1-yl)methyl)cyclopropanecarboxylic acid]	> 1	< 1	≤ 0.01	> 1
CCc1cccc(Cl)c1COc1ccc2c(c1)CC1(C2)CN(CC(C)CC(=O)O)C1 (stereo not shown) [Example 64, 4-(5′-((2-chloro-6-ethylbenzyl)oxy)-1′,3′-dihydrospiro[azetidine-3,2′-inden]-1-yl)-3-methylbutanoic acid]	–	< 1	≤ 0.01	> 1
